Measured values from the supplement of paper PMC12406974.

Tests used:
Assay in all cases: maximum observed lethal fraction; higher = more cell death
U2OS BCL2L12-KO = test system: U2OS BCL2L12-KO
U2OS PTBP1-KO = test system: U2OS PTBP1-KO
U2OS = test system: U2OS
U2OS BAX/BAK1 DKO = test system: U2OS BAX/BAK1 DKO
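Also: FLICK assay: SYTOX Green fluorescence of dead cells tracked over time after drugging in 96-well plates, with total cell counts taken from Triton X-100 lysed wells.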

## CN[C@@H]1C[C@H]2O[C@@](C)([C@@H]1OC)n1c3ccccc3c3c4c(c5c6ccccc6n2c5c31)C(=O)NC4 [Staurosporine]
U2OS BCL2L12-KO; 0.01 µM
  maximum observed lethal fraction: 0.437
U2OS BCL2L12-KO; 0.0316 µM
  maximum observed lethal fraction: 0.593
U2OS BCL2L12-KO; 0.1 µM
  maximum observed lethal fraction: 0.936
U2OS BCL2L12-KO; 0.316 µM
  maximum observed lethal fraction: 0.877
U2OS BCL2L12-KO; 1 µM
  maximum observed lethal fraction: 0.736
U2OS BCL2L12-KO; 3.16 µM
  maximum observed lethal fraction: 0.725
U2OS BCL2L12-KO; 10 µM
  maximum observed lethal fraction: 0.894
U2OS PTBP1-KO; 0.01 µM
  maximum observed lethal fraction: 0.476
U2OS PTBP1-KO; 0.0316 µM
  maximum observed lethal fraction: 0.77
U2OS PTBP1-KO; 0.1 µM
  maximum observed lethal fraction: 0.93
U2OS PTBP1-KO; 0.316 µM
  maximum observed lethal fraction: 0.878
U2OS PTBP1-KO; 1 µM
  maximum observed lethal fraction: 0.737
U2OS PTBP1-KO; 3.16 µM
  maximum observed lethal fraction: 0.781
U2OS PTBP1-KO; 10 µM
  maximum observed lethal fraction: 0.864
U2OS; 0.01 µM
  maximum observed lethal fraction: 0.508
U2OS; 0.0316 µM
  maximum observed lethal fraction: 0.709
U2OS; 0.1 µM
  maximum observed lethal fraction: 0.903
U2OS; 0.316 µM
  maximum observed lethal fraction: 0.819
U2OS; 1 µM
  maximum observed lethal fraction: 0.71
U2OS; 3.16 µM
  maximum observed lethal fraction: 0.642
U2OS; 10 µM
  maximum observed lethal fraction: 0.811
U2OS BAX/BAK1 DKO; 0.01 µM
  maximum observed lethal fraction: 0.104
U2OS BAX/BAK1 DKO; 0.0316 µM
  maximum observed lethal fraction: 0.113
U2OS BAX/BAK1 DKO; 0.1 µM
  maximum observed lethal fraction: 0.125
U2OS BAX/BAK1 DKO; 0.316 µM
  maximum observed lethal fraction: 0.121
U2OS BAX/BAK1 DKO; 1 µM
  maximum observed lethal fraction: 0.125
U2OS BAX/BAK1 DKO; 3.16 µM
  maximum observed lethal fraction: 0.136
U2OS BAX/BAK1 DKO; 10 µM
  maximum observed lethal fraction: 0.254

## C/C=C(/C)C(=O)O[C@H]1C(C)=C2[C@H]([C@@H]1OC(=O)CCCCCCC)[C@@](C)(OC(C)=O)C[C@H](OC(=O)CCC)[C@@]1(O)[C@H]2OC(=O)[C@@]1(C)O [Thapsigargin]
U2OS BCL2L12-KO; 0.0316 µM
  maximum observed lethal fraction: 0.631
U2OS BCL2L12-KO; 0.1 µM
  maximum observed lethal fraction: 0.675
U2OS BCL2L12-KO; 0.316 µM
  maximum observed lethal fraction: 0.688
U2OS BCL2L12-KO; 1 µM
  maximum observed lethal fraction: 0.71
U2OS BCL2L12-KO; 3.16 µM
  maximum observed lethal fraction: 0.721
U2OS BCL2L12-KO; 10 µM
  maximum observed lethal fraction: 0.779
U2OS BCL2L12-KO; 31.6 µM
  maximum observed lethal fraction: 0.892
U2OS PTBP1-KO; 0.0316 µM
  maximum observed lethal fraction: 0.228
U2OS PTBP1-KO; 0.1 µM
  maximum observed lethal fraction: 0.265
U2OS PTBP1-KO; 0.316 µM
  maximum observed lethal fraction: 0.324
U2OS PTBP1-KO; 1 µM
  maximum observed lethal fraction: 0.296
U2OS PTBP1-KO; 3.16 µM
  maximum observed lethal fraction: 0.48
U2OS PTBP1-KO; 10 µM
  maximum observed lethal fraction: 0.831
U2OS PTBP1-KO; 31.6 µM
  maximum observed lethal fraction: 0.892
U2OS; 0.0316 µM
  maximum observed lethal fraction: 0.405
U2OS; 0.1 µM
  maximum observed lethal fraction: 0.476
U2OS; 0.316 µM
  maximum observed lethal fraction: 0.473
U2OS; 1 µM
  maximum observed lethal fraction: 0.602
U2OS; 3.16 µM
  maximum observed lethal fraction: 0.585
U2OS; 10 µM
  maximum observed lethal fraction: 0.763
U2OS; 31.6 µM
  maximum observed lethal fraction: 0.862
U2OS BAX/BAK1 DKO; 0.0316 µM
  maximum observed lethal fraction: 0.0914
U2OS BAX/BAK1 DKO; 0.1 µM
  maximum observed lethal fraction: 0.192
U2OS BAX/BAK1 DKO; 0.316 µM
  maximum observed lethal fraction: 0.171
U2OS BAX/BAK1 DKO; 1 µM
  maximum observed lethal fraction: 0.266
U2OS BAX/BAK1 DKO; 3.16 µM
  maximum observed lethal fraction: 0.163
U2OS BAX/BAK1 DKO; 10 µM
  maximum observed lethal fraction: 0.811
U2OS BAX/BAK1 DKO; 31.6 µM
  maximum observed lethal fraction: 0.884

## CCN1CCN(Cc2ccc(Nc3ncc(F)c(-c4cc(F)c5nc(C)n(C(C)C)c5c4)n3)nc2)CC1 [Abemaciclib]
U2OS BCL2L12-KO; 0.01 µM
  maximum observed lethal fraction: 0.0701
U2OS BCL2L12-KO; 0.0316 µM
  maximum observed lethal fraction: 0.071
U2OS BCL2L12-KO; 0.1 µM
  maximum observed lethal fraction: 0.073
U2OS BCL2L12-KO; 0.316 µM
  maximum observed lethal fraction: 0.0769
U2OS BCL2L12-KO; 1 µM
  maximum observed lethal fraction: 0.211
U2OS BCL2L12-KO; 3.16 µM
  maximum observed lethal fraction: 0.457
U2OS BCL2L12-KO; 10 µM
  maximum observed lethal fraction: 0.889
U2OS PTBP1-KO; 0.01 µM
  maximum observed lethal fraction: 0.0734
U2OS PTBP1-KO; 0.0316 µM
  maximum observed lethal fraction: 0.0787
U2OS PTBP1-KO; 0.1 µM
  maximum observed lethal fraction: 0.081
U2OS PTBP1-KO; 0.316 µM
  maximum observed lethal fraction: 0.0922
U2OS PTBP1-KO; 1 µM
  maximum observed lethal fraction: 0.161
U2OS PTBP1-KO; 3.16 µM
  maximum observed lethal fraction: 0.257
U2OS PTBP1-KO; 10 µM
  maximum observed lethal fraction: 0.739
U2OS; 0.01 µM
  maximum observed lethal fraction: 0.0681
U2OS; 0.0316 µM
  maximum observed lethal fraction: 0.0675
U2OS; 0.1 µM
  maximum observed lethal fraction: 0.0675
U2OS; 0.316 µM
  maximum observed lethal fraction: 0.0855
U2OS; 1 µM
  maximum observed lethal fraction: 0.376
U2OS; 3.16 µM
  maximum observed lethal fraction: 0.314
U2OS; 10 µM
  maximum observed lethal fraction: 0.851
U2OS BAX/BAK1 DKO; 0.01 µM
  maximum observed lethal fraction: 0.0682
U2OS BAX/BAK1 DKO; 0.0316 µM
  maximum observed lethal fraction: 0.0681
U2OS BAX/BAK1 DKO; 0.1 µM
  maximum observed lethal fraction: 0.0721
U2OS BAX/BAK1 DKO; 0.316 µM
  maximum observed lethal fraction: 0.0802
U2OS BAX/BAK1 DKO; 1 µM
  maximum observed lethal fraction: 0.0972
U2OS BAX/BAK1 DKO; 3.16 µM
  maximum observed lethal fraction: 0.0964
U2OS BAX/BAK1 DKO; 10 µM
  maximum observed lethal fraction: 0.339

## NC(=O)c1cccc2cn(-c3ccc([C@@H]4CCCNC4)cc3)nc12 [Niraparib]
U2OS BCL2L12-KO; 0.1 µM
  maximum observed lethal fraction: 0.0692
U2OS BCL2L12-KO; 0.316 µM
  maximum observed lethal fraction: 0.0678
U2OS BCL2L12-KO; 1 µM
  maximum observed lethal fraction: 0.0775
U2OS BCL2L12-KO; 3.16 µM
  maximum observed lethal fraction: 0.0795
U2OS BCL2L12-KO; 10 µM
  maximum observed lethal fraction: 0.0934
U2OS BCL2L12-KO; 31.6 µM
  maximum observed lethal fraction: 0.86
U2OS BCL2L12-KO; 100 µM
  maximum observed lethal fraction: 0.928
U2OS PTBP1-KO; 0.1 µM
  maximum observed lethal fraction: 0.0698
U2OS PTBP1-KO; 0.316 µM
  maximum observed lethal fraction: 0.0678
U2OS PTBP1-KO; 1 µM
  maximum observed lethal fraction: 0.0749
U2OS PTBP1-KO; 3.16 µM
  maximum observed lethal fraction: 0.0795
U2OS PTBP1-KO; 10 µM
  maximum observed lethal fraction: 0.0839
U2OS PTBP1-KO; 31.6 µM
  maximum observed lethal fraction: 0.396
U2OS PTBP1-KO; 100 µM
  maximum observed lethal fraction: 0.964
U2OS; 0.1 µM
  maximum observed lethal fraction: 0.0543
U2OS; 0.316 µM
  maximum observed lethal fraction: 0.0611
U2OS; 1 µM
  maximum observed lethal fraction: 0.0677
U2OS; 3.16 µM
  maximum observed lethal fraction: 0.067
U2OS; 10 µM
  maximum observed lethal fraction: 0.0744
U2OS; 31.6 µM
  maximum observed lethal fraction: 0.716
U2OS; 100 µM
  maximum observed lethal fraction: 0.968
U2OS BAX/BAK1 DKO; 0.1 µM
  maximum observed lethal fraction: 0.0556
U2OS BAX/BAK1 DKO; 0.316 µM
  maximum observed lethal fraction: 0.0569
U2OS BAX/BAK1 DKO; 1 µM
  maximum observed lethal fraction: 0.065
U2OS BAX/BAK1 DKO; 3.16 µM
  maximum observed lethal fraction: 0.0723
U2OS BAX/BAK1 DKO; 10 µM
  maximum observed lethal fraction: 0.0787
U2OS BAX/BAK1 DKO; 31.6 µM
  maximum observed lethal fraction: 0.342
U2OS BAX/BAK1 DKO; 100 µM
  maximum observed lethal fraction: 0.936
